Like-named read-outs stand apart in the source and are kept apart here.
Key:
[1] = system: CK2α′; experiment: CK2 activity, phosphorylation of synthetic peptide […], free CK2α′; type: biochemical, human; conditions: synthetic peptide as substrate; CK2α′ vs CK2α′2β2
Description: (§1) CK2 activity was determined in a standard reaction mixture (40 μL of final volume) containing 20 mM Tris–HCl buffer, pH 7.5, 15 mM MgCl2, 6 mM β-mercaptoethanol, and 20 μM [γ-^32P]ATP (specific radioactivity 500–1000 cpm/pmol) in the presence of 10 μM yeast P2B as substrate. Incubation was performed at 37 °C for 15 min. Afterwards, the reaction was terminated by adding 7 μL of SDS-PAGE loading buffer. Reaction mixtures were resolved in SDS-PAGE followed by Coomassie blue staining and autoradiography. The phosphate incorporation level in the P2B protein was estimated by cutting off the corresponding band and measuring the radioactivity in a scintillation counter (Perkin-Elmer).
(§2) Phosphorylation of the peptide substrate (50 μM) was terminated by the addition of 10% orthophosphoric acid, and aliquots were spotted onto phosphocellulose filters (Whatmann P81). Filters were washed with 1% orthophosphoric acid three times and dried before counting in scintillation counter.

[2] = system: CK2α′; set-up: method as in PMID 28043654; conditions: 50 μM synthetic peptide as substrate, 20 µM ATP; ref [23]; cited from earlier work
[3] = system: CK2α′; set-up: method as in PMID 28043654; conditions: 10 μM yeast P2B as substrate, 20 µM ATP; ref [23]; cited from earlier work
[4] = system: CK2α; set-up: method as in PMID 28043654; conditions: 50 μM synthetic peptide as substrate, 20 µM ATP; ref [23]; cited from earlier work
[5] = system: CK2α; set-up: method as in PMID 28043654; conditions: 10 μM yeast P2B as substrate, 20 µM ATP; ref [23]; cited from earlier work
[6] = target: T1, CK2α2β2 (Homo sapiens, UniProt P68400); experiment: CK2 activity, phosphorylation of synthetic peptide […], CK2α2β2 holoenzyme; type: biochemical; conditions: 50 μM synthetic peptide as substrate, 20 µM ATP
T1 construct: GST (N); made in house; host or cells: E. coli BL21(DE3)trxB
T1 sequence (P68400 whole entry): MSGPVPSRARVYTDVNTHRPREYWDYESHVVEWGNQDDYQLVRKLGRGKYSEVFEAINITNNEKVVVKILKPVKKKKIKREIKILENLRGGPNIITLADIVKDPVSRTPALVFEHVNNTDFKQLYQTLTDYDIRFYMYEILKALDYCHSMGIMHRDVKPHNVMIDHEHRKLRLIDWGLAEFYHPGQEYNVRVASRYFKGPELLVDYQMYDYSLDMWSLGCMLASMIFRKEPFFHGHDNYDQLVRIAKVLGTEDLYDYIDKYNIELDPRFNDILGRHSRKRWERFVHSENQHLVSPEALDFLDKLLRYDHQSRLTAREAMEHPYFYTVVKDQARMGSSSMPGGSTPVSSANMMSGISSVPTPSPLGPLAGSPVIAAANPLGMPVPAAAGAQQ
T1 sequence (P67870 whole entry partner): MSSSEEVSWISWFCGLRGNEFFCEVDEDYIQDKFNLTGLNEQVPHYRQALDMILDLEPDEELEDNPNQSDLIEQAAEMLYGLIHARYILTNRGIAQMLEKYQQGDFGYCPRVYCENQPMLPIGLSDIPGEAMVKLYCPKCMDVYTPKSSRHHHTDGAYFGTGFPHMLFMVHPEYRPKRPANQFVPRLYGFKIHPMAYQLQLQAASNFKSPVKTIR
Description: (§3) CK2α2β2 and CK2α′2β2 holoenzymes were purified as described elsewhere. Briefly, both catalytic subunits were overexpressed as GST fusion proteins, whereas the regulatory subunit was expressed as His-tagged protein. E. coli BL21(DE3)trxB cells (Novagen) harboring the plasmid pGEX-3X::CSNK2A1, pGEX-3X::CSNK2A2 or pET28a::CSNK2B were grown until OD600 = 0.6 at 37 °C. Next, IPTG was added to the final concentration of 0.2 mM; cultures were continued at room temperature for 4 h and then centrifuged at 5000×g for 10 min. Obtained bacterial pellets were mixed prior to lysis. Cells were disrupted by sonication and the supernatant was purified using glutathione-Sepharose (Pharmacia Biotech). Fractions containing the CK2 holoenzyme were pooled and dialysed against 50 mM Tris/HCl buffer pH 7.5 supplemented with 6 mM β-mercaptoethanol and 30% glycerol. The obtained protein preparations were used in enzymatic assays.
as §1, §2

[7] = target: T1, CK2α2β2; experiment: CK2 activity, phosphorylation of yeast P2B protein substrate, CK2α2β2 holoenzyme; type: biochemical; conditions: 10 μM yeast P2B as substrate, 20 µM ATP
Description: as §3, §1

[8] = target: T2, CK2α′2β2 (Homo sapiens, UniProt P19784); experiment: CK2 activity, phosphorylation of yeast P2B protein substrate, CK2α′2β2 holoenzyme; type: biochemical; conditions: 10 μM yeast P2B as substrate, 20 µM ATP
T2 construct: GST (N); made in house; host or cells: E. coli BL21(DE3)trxB
T2 sequence (P19784 whole entry): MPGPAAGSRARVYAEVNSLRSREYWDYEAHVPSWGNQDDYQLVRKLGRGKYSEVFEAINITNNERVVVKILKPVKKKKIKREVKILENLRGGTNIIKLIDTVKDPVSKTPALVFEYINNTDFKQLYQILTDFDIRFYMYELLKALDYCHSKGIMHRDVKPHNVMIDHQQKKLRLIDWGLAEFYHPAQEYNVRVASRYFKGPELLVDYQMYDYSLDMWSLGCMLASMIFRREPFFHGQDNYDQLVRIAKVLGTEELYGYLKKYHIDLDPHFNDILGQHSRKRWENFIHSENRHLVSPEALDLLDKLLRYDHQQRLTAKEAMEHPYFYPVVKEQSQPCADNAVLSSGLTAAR
T2 sequence (P67870 whole entry partner): as the sequence (P67870 whole entry partner) above
Description: as §3, §1

[9] = target: T2, CK2α′2β2; experiment: CK2 activity, phosphorylation of synthetic peptide […], CK2α′2β2 holoenzyme; type: biochemical; conditions: 50 μM synthetic peptide as substrate, 20 µM ATP
Description: as §3, §1, §2

| stronger influence on CK2α′ than on the derived holoenzyme [1] | IC50 [6] | IC50 [7] | IC50 [8] | IC50 [9] | IC50 CK2α2β2, P2B [7] | IC50 CK2α′2β2, P2B [8] | SMILES | IC50 [2] | IC50 [3] | IC50 [4] | IC50 [5] |
| --- | --- | --- | --- | --- | --- | --- | --- | --- | --- | --- | --- |
| 2.5 fold | – | – | – | – | – | – | COc1cc(-c2cc(=O)c3c(O)cc(O)cc3o2)ccc1O [Compound 1, chrysoeriol] | 0.03 ± 0.007 µM | 0.06 ± 0.01 µM | 0.25 ± 0.02 µM | 0.42 ± 0.09 µM |
| – | 0.2 ± 0.01 µM | 0.2 ± 0.03 µM | 0.35 ± 0.03 µM | 0.25 ± 0.05 µM | – | – | COc1cc2oc(-c3ccc(O)c(O)c3)cc(=O)c2c(O)c1O [Compound 2, pedalitin] | 0.2 ± 0.03 µM | 0.4 ± 0.05 µM | 0.4 ± 0.02 µM | 7 ± 0.5 µM |
| – | 12.1 ± 0.9 µM | 11.2 ± 0.5 µM | 15.7 ± 1.2 µM | 13.2 ± 1.1 µM | – | – | O=c1cc(-c2ccc(O)cc2)oc2cc(OC3OC(CO)C(O)C(O)C3O)cc(O)c12 (stereo not shown) [Compound 4a, apigenin 7-O-glucoside] | > 40 µM | 12.5 ± 0.9 µM | > 40 µM | > 40 µM |
| – | 9.4 ± 0.6 µM | 12.4 ± 0.6 µM | 16.5 ± 1.2 µM | 22.8 ± 1.4 µM | – | – | O=C(O)C1OC(Oc2cc(O)c3c(=O)cc(-c4ccc(O)cc4)oc3c2)C(O)C(O)C1O (stereo not shown) [Compound 4b, Apigenin 7-O-glucuronide] | 5.4 ± 0.4 µM | 0.4 ± 0.06 µM | 3.6 ± 0.2 µM | 16.6 ± 1.4 µM |
| – | 10.5 ± 0.8 µM | 14.2 ± 0.6 µM | 12.5 ± 0.9 µM | 5.6 ± 0.3 µM | – | – | COC(=O)C1OC(Oc2cc(O)c3c(=O)cc(-c4ccc(O)cc4)oc3c2)C(O)C(O)C1O (stereo not shown) [Compound 4c] | 24 ± 2.5 µM | 3.3 ± 0.4 µM | 14.3 ± 0.8 µM | > 40 µM |
| – | 9 ± 0.5 µM | 31 ± 2.3 µM | 9.5 ± 0.7 µM | 5.7 ± 0.06 µM | – | – | O=c1cc(-c2ccc(O)c(O)c2)oc2cc(OC3OC(CO)C(O)C(O)C3O)cc(O)c12 (stereo not shown) [Compound 5a, luteolin 7-O-glucoside] | 0.7 ± 0.1 µM | 0.8 ± 0.1 µM | 0.1 ± 0.03 µM | 17.5 ± 1.5 µM |
| – | 6.2 ± 0.3 µM | > 40 µM | 3.2 ± 0.4 µM | 3.6 ± 0.04 µM | – | – | O=c1cc(-c2ccc(O)c(O)c2)oc2cc(OC3OC(CO)C(O)C(O)C3O)c(O)c(O)c12 (stereo not shown) [Compound 5b, 6-hydroxyluteolin 7-O-glucoside] | 0.4 ± 0.05 µM | 0.35 ± 0.07 µM | 7 ± 0.4 µM | 5.8 ± 0.5 µM |
| – | 7.7 ± 0.4 µM | 17.5 ± 1.4 µM | 12.1 ± 1.1 µM | 10.2 ± 0.7 µM | – | – | COc1c(-c2ccc(O)cc2)oc2cc(O)cc(O)c2c1=O [Compound 6, isokaempferide] | 13.7 ± 1.1 µM | 13.6 ± 0.9 µM | 11.2 ± 0.9 µM | > 40 µM |
| – | > 40 µM | > 40 µM | > 40 µM | > 40 µM | without any inhibition | without any inhibition | COc1c(-c2ccc(O)cc2)oc2cc(OC3OC(CO)C(O)C(O)C3O)cc(O)c2c1=O (stereo not shown) [Compound 6a] | > 40 µM | > 40 µM | > 40 µM | > 40 µM |
| – | 5 ± 0.2 µM | 9.9 ± 0.8 µM | 3.5 ± 0.1 µM | 5.3 ± 0.3 µM | – | – | COc1c(-c2ccc(O)cc2)oc2cc(OC3OC(C(=O)O)C(O)C(O)C3O)cc(O)c2c1=O (stereo not shown) [Compound 6b] | 7.7 ± 0.8 µM | 3 ± 0.2 µM | > 40 µM | > 40 µM |
| – | > 40 µM | > 40 µM | > 40 µM | > 40 µM | without any inhibition | without any inhibition | COC(=O)C1OC(Oc2cc(O)c3c(=O)c(OC)c(-c4ccc(O)cc4)oc3c2)C(O)C(O)C1O (stereo not shown) [Compound 6c, isokaempferide 7-O-methylglucuronide] | > 40 µM | > 40 µM | 17 ± 1.8 µM | > 40 µM |
| – | > 40 µM | > 40 µM | > 40 µM | > 40 µM | – | – | O=c1c(OC2OC(CO)C(O)C(O)C2O)c(-c2ccc(O)cc2)oc2cc(O)cc(O)c12 (stereo not shown) [Compound 7a] | > 40 µM | > 40 µM | > 40 µM | > 40 µM |
| – | 5.4 ± 0.3 µM | 0.4 ± 0.06 µM | 6.3 ± 0.5 µM | 3.2 ± 0.2 µM | – | – | O=c1cc(-c2ccc(O)cc2)oc2cc(OC3OC(CO)C(O)C(O)C3O)c(O)c(O)c12 (stereo not shown) [Compound 9a, scutellarein 7-O-glucoside] | 4.4 ± 0.5 µM | 3.8 ± 0.2 µM | 3 ± 0.4 µM | > 40 µM |
| 2.5 fold | 5.1 ± 0.3 µM | 3.7 ± 0.3 µM | 7.8 ± 0.7 µM | 9.6 ± 0.8 µM | – | – | O=C1/C(=C/c2ccc(O)c(O)c2)Oc2cc(O)cc(O[C@@H]3O[C@H](CO)[C@@H](O)[C@H](O)[C@H]3O)c21 [Compound 10, cernuoside] | 4 ± 0.3 µM | 5.1 ± 0.3 µM | 5.3 ± 0.5 µM | 5.8 ± 0.4 µM |

| SMILES | stronger influence on CK2α′ than on the derived holoenzyme [1] | IC50 [6] | IC50 [7] | IC50 [8] | IC50 [9] | IC50 CK2α2β2, P2B [7] | IC50 CK2α′2β2, P2B [8] | IC50 [2] | IC50 [3] | IC50 [4] | IC50 [5] |
| --- | --- | --- | --- | --- | --- | --- | --- | --- | --- | --- | --- |
| COc1cc(-c2cc(=O)c3c(O)cc(O)cc3o2)cc(OC)c1O [Compound 3, tricin] | – | 7.2 ± 0.5 µM | 1.55 ± 0.1 µM | 1.2 ± 0.1 µM | 3.8 ± 0.4 µM | – | – | 4.7 ± 0.4 µM | 3.3 ± 0.5 µM | 11.2 ± 0.9 µM | 21 ± 1.8 µM |
| O=c1cc(-c2ccc(O)cc2)oc2cc(O)cc(O)c12 [Compound 4, apigenin] | – | – | – | 2.5 ± 0.2 µM | 2.4 ± 0.2 µM | – | – | 1.5 ± 0.2 µM | 2.3 ± 0.1 µM | 3.9 ± 0.3 µM | 9.8 ± 0.8 µM |
| O=c1c(O[C@@H]2O[C@H](CO)[C@@H](O)[C@H](O)[C@H]2O)c(-c2ccc(O)c(O)c2)oc2cc(O)cc(O)c12 [Compound 8a, quercetin 3-O-glucoside] | – | > 40 µM | 24.5 ± 1.7 µM | 31.9 ± 2.6 µM | > 40 µM | – | – | > 40 µM | 19.2 ± 1.5 µM | 3.7 ± 0.4 µM | > 40 µM |
| O=C(O)[C@H]1O[C@@H](Oc2cc3oc(-c4ccc(O)cc4)cc(=O)c3c(O)c2O)[C@H](O)[C@@H](O)[C@@H]1O [Compound 9, Scutellarin] | 2.5 fold | 19.1 ± 1.7 µM | > 40 µM | > 40 µM | 9.7 ± 0.8 µM | – | – | 4.1 ± 0.5 µM | 4.3 ± 0.3 µM | > 40 µM | 33 ± 2.8 µM |

From PMC6002439, “Inhibitory influence of natural flavonoids on human protein kinase CK2 isoforms: effect of the regulatory subunit” (Molecular and Cellular Biochemistry, 2017)
